Measured values taken from patent US5116841A, “Imidazoquinoxalines and their preparation and use” (Novo Nordisk A/S, priority 1989, dated 1992).

Each compound was assayed on benzodiazepine receptors (assay: in vivo displacement of 3H-flunitrazepam from brain benzodiazepine receptors in mice). Settings: female NMR mice, i.p.; 3H-FNM i.v. 15 min after test substance; forebrain 20 min later; dose inhibiting 50% of specific 3H-FNM binding.
Source text: The pharmaceutical properties of the compounds of the invention can be illustrated by determining their capability for displacing radioactive labelled flunitrazepam from benzodiazepine receptors.
The displacement activity of the compounds of the invention may be found by determining the ED50 value. The ED50 value represents the dose (mg/kg) of a test substance which causes the specific binding of flunitrazepam to benzodiazepine receptors in a living brain to be reduced to 50% of the control value.
Such an in vivo test is carried out as follows:
Principle. Twenty minutes after a dose of ^3 H-flunitrazepam (^3 H-FNM) (200 μCi/kg, i.v.) the amount of specific ^3 H-FNM binding to brain benzodiazepine receptors has reached its maximal value.
Test procedure. Suspensions of test substances (2 mg/ml) are prepared in 5% Duphasol-X (TM Duphar, castor oil-ethylene oxide derivative for emulsifying and solubilizing oil and other water-insoluble substances) by sonification for 10 min using a Branson B15 microtip ultrasonifier (setting 7). Groups of three mice (female, NMR, 18-22 grams) are injected with the test substance at 100 mg/kg intraperitoneally. Fifteen minutes after test substance administration the mice are challenged with 4 μCi intravenously of ^3 H-FNM (70-90) Ci/mole) in 200 μl physiological saline. Twenty minutes after ^3 H-FNM administration mice are sacrificed by decapitation, the forebrains rapidly excised (within 30 sec) and homogenized in 12 ml of icecold 25 mM KH2 PO4, pH 7.1, using an Ultra-Turrax homogenizer fitted with an N 10 shaft. […] The amounts of radioactivity on the filters are determined by conventional scintillation counting. […]
Results. The ED50 value is determined from dose response curves. If only one dose of test substance is administered the ED50 value is calculated as follows, provided that the inhibition of specific binding is within the range of 25-75%: [formula] where Co is specific binding in controls and Cx is specific binding in mice treated with test substance.
For `CC(C)=CCn1c(=O)c2c(-c3cc(C)no3)ncn2c2ccccc21` [Compound 29, 4,5-dihydro-5-(3,3-dimethylallyl)-3-(3-methyl-5-isoxazolyl)-4-oxo-imidazo[1,5-a]quinoxaline], the ED50 was 0,37 mg/kg.
`COc1cccc(Cn2c(=O)c3c(-c4cc(C)no4)ncn3c3ccccc32)c1` [Compound 27, 4,5-dihydro-5-(3-methoxybenzyl)-3-(3-methyl-5-isoxazolyl)-4-oxo-imidazo[1,5-a]quinoxaline] was tested, and the ED50 was 0,45 mg/kg.
In the case of `CC(C)n1c(=O)c2c(-c3cc(C4CC4)on3)ncn2c2ccccc21` [Compound 8, 3-(5-cyclopropyl-3-isoxazolyl)-4,5-dihydro-5-isopropyl-4-oxo-imidazo[1,5-a]quinoxaline], the ED50 was 1,8 mg/kg.
